Structure (SMILES)	melting point [°C]
CCc1nc2c(N)nc3cccnc3c2n1NCCCNS(C)(=O)=O	176 to 178
CCCC/C(=C\C=C\C(=O)O)c1ccc(OC)cc1	138 to 140
COc1ccc(-c2cc(=O)n(-c3ccccn3)nc2C)cc1	156 to 157
CCOC(=O)c1cc2c(s1)CC(C)(C)C2=O	41 to 42
CCCC1=C(C(=O)OCC)C(c2cccc(C)c2OC)c2c[nH]nc2N1 (stereo not drawn)	220 to 222
CC(C)C1(C)CC(=O)CC(C)(C)N1 (stereo not drawn)	47 to 53
OC(Cc1ccc(F)cc1)c1ccc(F)cc1 (stereo not drawn)	48 to 50
O=C1OC[C@@H](CF)N1c1nc(-c2ccc(Br)cc2)cs1	148 to 150
CCNc1nc(NC)cc(NS(=O)(=O)c2ccc(N)cc2)n1	261 to 263
C=CCN(C)C(=O)/C=C/CSc1nc(N)cc(Cl)n1	140 to 142
CCNc1cncc(C#N)c1	110
CCCCOc1cc([N+](=O)[O-])c(OCCCC)cc1N=NN1CCOCC1	79 to 81
COC(=O)c1ccc(OCC=C(C)CCC=C(C)C)cc1	30 to 33
Cc1ccnc(-c2ccc([N+](=O)[O-])cc2)c1	145 to 147
CCOC(=O)C1=C(C)NC(C)=C(C(=O)OC)C1c1cccc2c(=O)c(C)c(-c3ccccc3)oc12 (stereo not drawn)	226 to 228
O=C(Nc1cc([N+](=O)[O-])ccc1F)C(F)(F)F	112 to 113
CCOC(=O)C(=CNc1cscc1OC)C(=O)OCC	100 to 102
CCC(CC)(CC)C(=O)NC(C)(C)CO	57 to 58
CN(c1ccc(Br)cc1)S(=O)(=O)c1cccc(C(=O)Nc2ccc(Cl)cc2F)c1	117 to 118
CN(C)CCCc1cccc(OCCCNc2nc(N)nn2C)c1	64 to 65.5
CCn1cc(C(=O)NCc2ccc(Cl)cc2)c(=O)c2cc(CN(C)C[C@@H](O)c3ccccc3)sc21	100 to 102
O=c1[nH]c(=O)n(C2CC2)c2nc(S(=O)(O)=S)c(F)cc12	300 to 302
NCc1nnc(-c2ncn3c2[C@@H]2CCCN2C(=O)c2sccc2-3)o1	214 to 216
Cc1oc(-c2ccccc2)nc1CCC(=O)c1ccc(CCC2OCCO2)cc1	89 to 90

Structure (SMILES)	melting point [°C]
O=C(c1cccnc1)N1CCC(c2ccccc2)=N1	87 to 89
CCCCCCCCC(=O)OC(C)c1ccc(-c2ccc(OC)cc2)cc1 (single isomer, unassigned; (+))	59 to 60
O=c1cc(NCCN2CCN(c3ccccc3F)CC2)cn[nH]1	103 to 105
CCCCCc1ccc(OC(=O)N2CCC(OC(=O)NCCCCCCOC(=O)N3CCC4(CCCC4)CC3)CC2)cc1	100 to 102
Cc1c(S(=O)(=O)N(C)C)c(=O)c2ccc(F)cc2n1C	244 to 248
CC(C)CCOc1ccc(S(=O)(=O)C2(C(=O)O)CCN(Cc3ccccc3)CC2)cc1	106
Cc1nc2ccc([N+](=O)[O-])cn2c(=O)c1CCCl	170
CCCC(O)(CC)C(C)=NO (stereo not drawn)	59
CCc1cnc(N2CCN(C(=O)c3ccc(CNc4nc(-c5ccccc5)nc5ccccc45)cc3)CC2)nc1	207 to 208
CCc1cnc(C2=NC(C)(C(C)C)C(=O)N2)c(C(=O)NCCCCCC(=O)OC)c1 (stereo not drawn)	101 to 103
CC(Cc1ccc(OCc2cccc(C(N)=O)c2)cc1)NCCC(c1ccccc1)c1ccccc1 (stereo not drawn)	188 to 190
CSC(=Nc1ccccc1)N(c1ccccc1)c1nc(C)cc(C)n1	101 to 103
N#CC(N)=C(C#N)N=C1c2ccccc2-c2ccccc21	156 to 157
Clc1nc(NCCCCC=C(c2ccccc2)c2ccccc2)c2nc[nH]c2n1	206 to 207
CCc1c(-c2ccccc2)c2c(COCCCN3CCCCC3)cc3c(O)ccc1n32	93 to 99
CCc1cn(C2CC(O)C(CN(C)Cc3ccccc3)O2)c(=O)[nH]c1=O (stereo not drawn)	135 to 137
C#CCN(C(C)=O)c1cccc(-c2ccc3nnc(C)n3n2)c1	195 to 198
CN(C)CCNC1=C(Br)C(=O)c2sc(C(=O)N3CCN(C(=O)C4CCCO4)CC3)nc2C1=O (stereo not drawn)	161 to 162
O=C(O)[C@H](Cc1ccccc1)NS(=O)(=O)c1ccc(N2CCC(Cc3ccccc3)CC2)cc1	164 to 165
O=C(c1ccc(OCC2CC2)c2oc3ccccc3c12)[NH+]([O-])c1cccnc1 (stereo not drawn)	272 to 275
CC1(C)Oc2ccc(Cl)cc2C(CS(=O)(=O)NCC(=O)NCCc2ccccc2)C1O (stereo not drawn)	168 to 170
CCC#CC(C)(C)NC(=O)C(CC)Oc1cncc(Br)c1 (stereo not drawn)	90 to 92
COc1ccnc2c1c(C(C)=O)cn2C	79 to 81
NNC(=O)c1cccc(Cc2c[nH]cn2)c1O	190

Continued, values first:

melting point [°C]	Structure (SMILES)
92	COc1ccc(NCCOc2ccc3ccccc3c2)cc1
135 to 136	COC(=O)C1=Cc2cc(Br)ccc2N(C(=O)OC)CC1
125	CCCCCOc1cc(C(=O)O)ccc1OC
218 to 219	Cc1sc2c(Cl)c(Cl)c(OCC(=O)O)cc2c1C
104 to 106	CC(CCC1(C(N)=O)c2ccccc2-c2ccccc21)N(C)C (stereo not drawn)
155 to 157	O=C(Nc1ccc(-n2nc(C(F)(F)F)cc2C(F)(F)F)cc1)c1ccccc1Cl
268 to 270	CNc1nc(N)nc(-c2ccccc2)c1-c1ccc(=O)n(C(C)C)n1
88 to 90	COc1ccc(N(C)c2nccc(-c3cccnc3)n2)cc1
208 to 210	CCC1(Cl)C(=O)c2c(cc(OCC(=O)O)c(Cl)c2Cl)C1C (stereo not drawn)
148	CC(=O)OC1CSC(Oc2ccccc2[N+](=O)[O-])C(OC(C)=O)C1OC(C)=O (stereo not drawn)
82 to 100	O=C1N(CC2CCCO2)c2ccccc2C12COc1cc3c(cc12)C(=NO)CO3 (stereo not drawn)
196 to 198	C[C@H](Nc1ncnc2[nH]cnc12)c1oc2ccc(F)cc2c(=O)c1-c1ccccc1
229 to 231	CCCCc1nc2ccccc2n1Cc1ccc(C(=O)O)cc1
57 to 59	COc1ccc(C=CC(=O)c2ccco2)c(OC)c1
244 to 246	COc1cc2ccc(-c3ccccc3[N+](=O)[O-])cc2cc1OC
68 to 70	CCOC(=O)C(C)(C)Oc1ccc(C#CC(=O)c2ccc(Cl)cc2)cc1
45 to 50	Cc1ccc(-c2ccc3ccccc3c2)n1CC[C@H]1C[C@H](O)CC(=O)O1 (relative stereo)
117 to 124	CC(C)(O)CC(O)c1cccc(OCc2ccc3ccccc3n2)c1 (stereo not drawn)
225 to 227	Cn1cc(C2=C(c3cn(CCCS(C)(=O)=O)c4ccccc34)C(=O)NC2=O)c2ccccc21
135 to 136	O[C@@H]1CNCC[C@H]1Sc1ccccc1 (relative stereo)
204 to 206	CCn1ccnc1CNC(=O)c1[nH]c2ccc(Cl)cc2c1S(=O)(=O)c1ccccc1
138 to 140	CCC(Oc1cccc2ccccc12)C(=O)OC1CC(O)C=C2C=CC(C)C(CCC3CC(O)CC(=O)O3)C21 (stereo not drawn)
162 to 164	O=C(c1ccccc1)N1CCC(CN2CCc3c([nH]c4ccccc34)C2)CC1
62 to 63	CC(CF)(CF)C1=NC(c2ccc(C(C)(C)C)cc2)CO1 (stereo not drawn)
148 to 150	O=[N+]([O-])c1cccc(-c2ccnc3c(-c4ccsc4)cnn23)c1

— a melting point compilation (Tetko et al.; mined from patent text by program, amines drawn as free bases though some values may be those of a salt)
